In patent US7252953B2, “Method of detecting and preventing Alzheimer's disease, particularly at prodromal and early stages” (United States of America Department of Veterans Affairs, priority 2002, dated 2007):
Entries after “also recorded” stand apart in the source; their conditions may differ.

Key:
[1] = tested on: [Ca^2+]i; experiment: Ca2+ imaging (Fluo-4) in microglial cells; assay type: cell-based, murine
Experimental: (§1) Primary microglial cultures were prepared from neonatal mouse (C57BL6) brains as previously described (Reference 29) and maintained in Delbecco's modified Eagle's medium with F-12 nutrient mixture (DMEM/F12) containing 10% fetal bovine sera (FBS) and antibiotics. N9 clonal murine microglial cell cultures were maintained in Iscoves modified Delbecco's medium (IMDM) containing 5% heat-inactivated FBS, 2 mM L-glutamine, 50 μM 2-mercaptoethanol and antibiotics. Treatment of both primary and N9 microglial cells were performed under serum-free conditions. Freshly solublized Aβ (BioSource, Camarillo, Calif.) peptides were prepared and characterized as previously described (References 30 and 44) and were used in all in vitro experiments. Unless specified, cells were always pretreated with sAβ for 5 min and then followed by challenge with α-thrombin (100 nM or as indicated), glutamate (2 mM) or LPS (5 ng/ml).
We measured [Ca^2+]i in microglial cells using Fluo-4 (2 μM) with the aid of a Nikon BioRadiance triple laser scanning confocal microscope. Image collection, quantification and data analysis were performed as previously described (Reference 29).
(§2) In previous studies, we found thrombin signaling via PARs in microglial cells involving [Ca^2+]i increase and transient activation of both p38 and p44/42 mitogen-activated protein kinases (MAPKs) (Reference 29). To understand potential consequences of GRK dysfunction induced by sAβ, for these studies we also assessed changes in thrombin signaling in sAβ-pretreated microglial cells.
(§3) FIG. 5A, N9 microglial cells were pre-treated with 500 nM sAβ1-42 (arrow “1”) followed by 100 nM thrombin treatment (arrow “2”). Changes in [Ca^2+]i were measured as previously described (Reference 29) from three separate experiments. […] For both FIGS. 5B and 5C, lane M=Marker, 1=Control (0 min), 2=Control (25 min), 3=Aβ1-42 (25 min), 4=Thrombin (20 min), 5=Aβ1-42+thrombin (20 min post-Aβ), 6=Control (24 h), 7=Aβ1-42 (24 h), 8=Thrombin (24 h) and 9=Aβ1-42+thrombin (24 h post-Aβ). “P” and “T” indicate phosphorylated and total p38 or p44/42 MAPKs, respectively.

[2] = tested on: TNF-α; experiment: TNF-α release in primary mouse brain microglial cultures; assay type: cell-based
Experimental: as §1
(§4) TNF-α production in microglial culture media was measured and standardized as previously described (Reference 29).
(§5) Given our results that sAβ disrupts GRK function and inhibits GPCR desensitization in microglia, we next investigated whether such signaling dysregulation might lead to cellular functional changes in microglia. Both primary and N9 clonal murine microglial cultures were used and TNF-α secretion in culture media was measured as an outcome. […] Moreover, the potentiation effect of sAβ on thrombin and glutamate-induced microglial activation was dose-dependent, with a minimal effective concentration (ECmin) of 20 nM and a maximal EC (ECmax) of 500 nM. Furthermore, the enhancement effect was not observed if sAβ was given after (10 min) thrombin or glutamate treatments. […] Together with the evidence that sAβ inhibits GRK-GPCR interactions and causes prolongation of GPCR signaling, we conclude that sAβ, by disrupting GRK function, alters microglial reactivity to specific GPCR activators.
FIG. 6A, pretreatment with sAβ1-42 potentiated (p<0.01) TNF-α release induced by increasing doses of thrombin (Thr) as indicated from primary mouse brain microglial cultures. n=4. […]

[3] = tested on: TNF-α; experiment: TNF-α release in N9 clonal murine microglial cells; assay type: cell-based
Experimental: as §1, §4, §5
FIG. 6A, pretreatment with sAβ1-42 potentiated (p<0.01) TNF-α release induced by increasing doses of thrombin (Thr) as indicated from primary mouse brain microglial cultures. n=4. […] The ECmin and ECmax for sAβ's potentiation are approximately 20 nM and 500 nM, respectively. n=6.

[4] = tested on: PARs-GRKs binding; experiment: Inhibition of GRK-PAR binding by sAβ-pretreatment in microglial cells (IP and WB, all examined PARs and GRKs); assay type: cell-based, murine; conditions: sAβ1-42 500 nM pretreatment 5 min, then 100 nM thrombin 30 seconds
Experimental: as §1, with “Unless specified, cells were always pretreated with sAβ for 5 min and then followed by challenge with α-thrombin (100 nM or as indicated), glutamate (2 mM) or LPS (5 ng/ml).” left out
(§6) Cultured cells were lysed in pre-chilled 2×IP buffer I (Tris, 20 mM, pH 7.4; NaCl, 300 mM; EDTA, 2 mM; 2 mM EGTA, pH 8.0; 0.4 mM sodium ortho-vanadate, 2% Triton X-100; 1% NP-40; 0.4 mM PMSF) supplemented both with phosphatase and protease inhibitor cocktails. After centrifugation, the supernatants were collected and total protein concentrations were determined by the bicinchoninic acid assay (BCA). […] Both antibodies to GRK2 and GRK5 (Santa Cruz) were diluted 1:500 for WB, other routine procedures, WB for total and phospho-p44/42 MAPK, and semi-quantitative analysis of protein band density were performed as previously described (Reference 29). […]

[5] = tested on: p44/42 MAPK; experiment: p44/42 MAPK phosphorylation in microglial cells (WB); assay type: cell-based, murine
Experimental: as §1
(§7) Cultured cells were lysed in pre-chilled 2×IP buffer I (Tris, 20 mM, pH 7.4; NaCl, 300 mM; EDTA, 2 mM; 2 mM EGTA, pH 8.0; 0.4 mM sodium ortho-vanadate, 2% Triton X-100; 1% NP-40; 0.4 mM PMSF) supplemented both with phosphatase and protease inhibitor cocktails. After centrifugation, the supernatants were collected and total protein concentrations were determined by the bicinchoninic acid assay (BCA). Equal amounts (250 μg) of cell lysates from each group were mixed with 20 μl (˜5 μg) of either PAR1 or PAR4 antibodies, and brought to a total volume of 1 ml in 1×IP buffer. Following a 1 hour incubation at 4° C., appropriate secondary antibody-agarose conjugates were added followed by incubation (30 min with agitation), centrifugation and sufficient washes. The pellets were resuspended in 30 μl of electrophoresis sample buffer and boiled for 5 min. The supernatants were directly used for polyacrylamide sodium dodecyl sulfate gel electrophoresis (SDS-PAGE) and WB analysis. To prepare subcellular fractions of brain samples, we homogenized fresh or fresh-frozen tissues in Tris buffered saline solution (Tris, 10 mM, pH 7.4; NaCl, 150 mM; EDTA, 1 mM; 1 mM EGTA, pH 8.0; 0.2 mM sodium ortho-vanadate) supplemented with protease inhibitor cocktails. After centrifugation (12,000 g at 4° C. for 15 min), the supernatants were collected as cytosolic fractions. The pellets were resuspended in 1×IP buffer containing protease inhibitor cocktail. Following brief sonication and centrifugation (12,000 g at 4° C. for 15 min), the supernatants were collected as membrane fractions. Both antibodies to GRK2 and GRK5 (Santa Cruz) were diluted 1:500 for WB, other routine procedures, WB for total and phospho-p44/42 MAPK, and semi-quantitative analysis of protein band density were performed as previously described (Reference 29).
as §2, §3

[6] = tested on: p38 MAPK; experiment: p38 MAPK phosphorylation in microglial cells (WB); assay type: cell-based, murine
Experimental: as §1, §7, §2, §3

[7] = tested on: fibrillar actin (F-actin); experiment: Phalloidin staining of F-actin in microglial cells; assay type: cell-based, murine
Experimental: Microglial cells were seeded onto poly-L-lysine-coated 8-chamber slides at a density of 1×10^4/well. After various treatments, cells were immediately fixed with pre-chilled (4° C.) 5% acetic acid in methanol for 45 min at 4° C., followed by washing with PBS. The fixed cells were blocked and double-stained with phalloidin-FITC (1:1,000) and anti-GRK5 (1:500) or GRK2 (1:500). Secondary antibody-Cy3 conjugates (1:500) staining, washing, mounting and confocal microscopic visualization were performed routinely as previously described (Reference 29).
Microglial-mediated inflammation is an important pathological component of AD (Reference 28). […] Thrombin, a serine protease is known to activate protease-activated GPCRs, (PARs) such as PAR1 (Reference 29) and PAR4 in microglia. The sAβ preparation used in this study has been previously characterized as composed principally of conformational intermediates by CD-spectrum (Reference 30) and a mixture of monomeric and oligomeric Aβ by Western blotting.

[8] = tested on: PAR4-GRK5; experiment: GRK-PAR binding in microglial cells by IP and WB: PAR4-GRK5; assay type: cell-based, murine; conditions: thrombin 100 nM alone, 30 seconds, compared to untreated microglial cells
Experimental: as §1, with “Unless specified, cells were always pretreated with sAβ for 5 min and then followed by challenge with α-thrombin (100 nM or as indicated), glutamate (2 mM) or LPS (5 ng/ml).” left out
as §6

[9] = tested on: PAR1-GRK2; experiment: GRK-PAR binding in microglial cells by IP and WB: PAR1-GRK2; assay type: cell-based, murine; conditions: thrombin 100 nM alone, 30 seconds, compared to untreated microglial cells
Experimental: as §1, with “Unless specified, cells were always pretreated with sAβ for 5 min and then followed by challenge with α-thrombin (100 nM or as indicated), glutamate (2 mM) or LPS (5 ng/ml).” left out
as §6

[10] = tested on: PAR4-GRK2; experiment: GRK-PAR binding in microglial cells by IP and WB: PAR4-GRK2; assay type: cell-based, murine; conditions: thrombin 100 nM alone, 30 seconds, compared to untreated microglial cells
Experimental: as §1, with “Unless specified, cells were always pretreated with sAβ for 5 min and then followed by challenge with α-thrombin (100 nM or as indicated), glutamate (2 mM) or LPS (5 ng/ml).” left out
as §6

[11] = 5 min pretreatment, N9 cells, FIG. 6B
[12] = sAβ pretreatment (5 min) followed by thrombin, within 20 min post-Aβ treatment
[13] = sAβ-pretreatment followed by thrombin, 24 h
[14] = substance alone, within 20 min post-Aβ treatment

Substance: sAβ: Soluble β-amyloid, chain length not stated at the place; sAβ1-42 (500 nM) in Examples 3-6
- [Ca^2+]i reached by the subsequent slow climb, without decrease ([1]; sAβ-pretreated cells (500 nM sAβ1-42), then 100 nM thrombin): greater than 450 nM
- effect of sAβ pretreatment on thrombin-induced TNF-α release ([2]; 5 min pretreatment, FIG. 6A): significantly potentiated
- TNF-α release induced by sAβ alone ([2]; nM concentrations): insufficient to induce significant TNF-α release
- effect of sAβ pretreatment on LPS-induced TNF-α release [3, 11]: not
- effect of sAβ pretreatment on glutamate-induced TNF-α release [3, 11]: significantly potentiated
- effect of sAβ pretreatment on thrombin-induced TNF-α release [3, 11]: significantly potentiated
- TNF-α release induced by sAβ alone ([3]; nM concentrations, N9 clonal microglial cultures): insufficient to induce significant TNF-α release; also recorded: not significant
- maximal EC (ECmax) of sAβ's potentiation ([3]; potentiation of thrombin- and glutamate-induced TNF-α release): 500 nM
- enhancement of TNF-α release when sAβ is given after thrombin or glutamate (post-treatment) ([3]; sAβ given 10 min after thrombin or glutamate): not observed
- binding of all examined PARs to GRKs after thrombin in sAβ-pretreated cells [4]: essentially abolished; also recorded: almost completely abolished
- p44/42 MAPK phosphorylation [5, 12]: increased phosphorylation
- p44/42 MAPK phosphorylation [5, 13]: remained elevated; also recorded: persistent phosphorylation
- p44/42 MAPK phosphorylation ([5]; substance alone, 24 h): returned to basal levels
- p44/42 MAPK phosphorylation [5, 14]: increased phosphorylation
- p38 MAPK phosphorylation [6, 12]: increased phosphorylation
- p38 MAPK phosphorylation [6, 13]: remained elevated; also recorded: persistent phosphorylation
- p38 MAPK phosphorylation ([6]; substance alone, 24 h): returned to basal levels
- p38 MAPK phosphorylation [6, 14]: increased phosphorylation
- formation of fibrillar actin (F-actin) [7]: caused rapid formation of fibrillar actin (F-actin)

Substance: thrombin
- [Ca^2+]i above basal levels after the rapid decrease ([1]; thrombin alone (100 nM)): approximately 100 nM
- change of [Ca^2+]i ([1]; thrombin alone (100 nM)): steep and sharp increase
- duration of the [Ca^2+]i level above basal ([1]; thrombin alone (100 nM)): at least 4 min
- change of [Ca^2+]i ([1]; thrombin alone (100 nM), listed as Thrombin): sharp increase and rapidly decrease
- increase of PAR4 binding to GRK5 [8]: ~4 fold
- TNF-α release induced by the activator alone ([3]; single dose, N9 cells, FIG. 6B): significantly stimulated
- increase of PAR1 binding to GRK2 [9]: ~30 fold
- increase of PAR4 binding to GRK2 [10]: ~2 fold
- p44/42 MAPK phosphorylation ([5]; substance alone, 24 h): returned to basal levels
- p44/42 MAPK phosphorylation [5, 14]: increased phosphorylation
- p38 MAPK phosphorylation ([6]; substance alone, 24 h): returned to basal levels
- p38 MAPK phosphorylation [6, 14]: increased phosphorylation
